Laboratory results: paper PMC8287724, “Reducing Auditory Nerve Excitability by Acute Antagonism of Ca^2+-Permeable AMPA Receptors” (Frontiers in Synaptic Neuroscience, 2021)

What was measured:
[1] = test system: auditory nerve compound action potential (CAP); experiment: Auditory nerve CAP after systemic (intraperitoneal) delivery; format: in vivo, guinea pig; settings: for effect on CAP thresholds: 1 to 22 kHz; for CAP amplitude reduction, on average: after ~1 h, 8 kHz tone bursts at 90 dB SPL
Method: This study utilized 21 NIH-strain, pigmented guinea pigs weighing from 400 to 650 g, in accordance with policies and protocols approved by the Institutional Animal Care and Use Committee at Washington University in St. Louis (20180133, 20190035). Animals were anesthetized with intraperitoneal (IP) injection of 100 mg/kg sodium thiobutabarbital (Inactin, Sigma, St. Louis, MO). Once anesthetized, the fur from the head and neck was shaved and a tracheal cannula was placed. The animal was maintained on 0.8–1.2% isoflurane in oxygen using a mechanical ventilator. The ventilator's tidal volume was adjusted to maintain a 5% end-tidal CO2 which was monitored with a CapnoTrue AMP (Bluepoint Medical, Zevenaar, The Netherlands). Body temperature was maintained at 38 degrees C with a DC-powered heating blanket-rectal thermometer (Model 50-7079; Harvard Apparatus). Heart rate and oxygen saturation were monitored with a pulse oximeter (Surgivet, Waukesha, WI). The auditory bulla was exposed ventrally for placement of recording electrodes. The jugular vein was cannulated to maintain hydration with 0.5 mL per hour of Lactated Ringer's solution. To prevent middle ear muscle contractions, vecuronium bromide (0.2 mg/kg) was administered immediately prior to data collection and every 1.5 h thereafter.
As described for local delivery, cochlear output was measured similarly for systemic delivery of IEM-1460 and IEM-1925. Complete details have been previously published (Salt et al., [2013]). Briefly, acoustic tone bursts were applied in a closed sound system. The plastic extension tube of the acoustic assembly (Etymotic Research, ER-10 C) was coupled to the end of the hollow ear bar with the tube tip positioned ~1.5 mm from the tympanic membrane. Stimulus generation and data collection were performed with Tucker Davis System 3 hardware controlled by a custom written program (Microsoft Visual Basic). Stimulus waveforms were routed through a programmable Tucker Davis PA5 attenuator and HB7 headphone amplifier. Stimuli were calibrated from 0.125 to 26 kHz in 1/4 octave steps. A CAP audiogram was obtained at the beginning and end of the experiment. Up to 60 min of baseline audiometric data were obtained prior to drug delivery. Data with baseline changes >20% were excluded. A 13-level tone probe series, at selected frequencies, was repeated at 2-min intervals. Distortion product otoacoustic emissions (DPOAEs) were measured using an ER10C probe system. The two primary tone frequencies were set at 6 kHz (f1) and 7.4 kHz (f2), for a f2/f1-ratio of 1.23, with levels of 65 dB SPL (L1) and 55 dB SPL (L2).
At each probe frequency, CAP peak-to-peak amplitudes were measured from the first trough (N1) to the first peak (P1). Latencies were measured to the trough of N1. Cochlear output was compared before and after intraperitoneal drug delivery. The data were tested for normality using a Kolmogorov-Smirnov test. For CAP amplitude and latency, significance was assessed with the Mann-Whitney U-test. The Wilcoxon signed rank test was used to assess CAP threshold. Friedman test was used to compare concentrations of drug between perilymph and CSF. A p < 0.05 was considered statistically significant. A Bonferroni correction was used when performing multiple comparison testing. All statistical tests were performed with IBM SPSS Statistics Version 27 (SPSS Inc., Chicago, IL, United States).
After at least 30 min of baseline data, 1 mL of Lactated Ringer's was injected into the peritoneal space of the guinea pig as a vehicle control. Then, 13.5 mg/kg IEM-1460 or 8 mg/kg IEM-1925 in Lactated Ringer's was injected into the peritoneal space of the guinea pig. The entire experiment took ~3 h to complete: 1 h for anesthetic induction and surgery, 30 min for sound calibration and CAP threshold measurements, and 2 h for drug delivery, DPOAE and CAP measurements. After collection of perilymph and CSF, the animal was euthanized via saturated KCl delivered directly into the jugular vein. […]

NMDA glutamate = experiment: Radioligand binding assay, NMDA receptor (rat cerebral cortex); settings: antagonist 1 μM
Method: Binding assays were conducted to evaluate the affinity of test compounds IEM-1460 and IEM-1925 (Eurofins Scientific, Inc.) for 15 targets: the human alpha-1 adrenergic (A1) receptor, histaminergic (H)-2 and−3 receptors, and muscarinic acetylcholine receptors-1 to−5 in transfected CHO cells by radioligand binding. The neuronal α4β2 and neuronal α7 cholinergic acetylcholine receptors were tested in transfected SH-SY5Y cells. The histaminergic-1 and−4 receptors were tested in transfected HEK-293 cells. Ion channel testing for AMPA and N-methyl-D-aspartate (NMDA) was performed in cells from the rat cerebral cortex. […] Non-specific binding was determined in the presence of 1 μM of DCPX. […] The filters were dried and then counted for radioactivity in a scintillation counter (Topcount, Packard) using a scintillation cocktail (Microscint 0, Packard). The results are expressed as a percent inhibition of the control radioligand specific binding: 100-[(measured specific binding)/(control specific binding) × 100]. […]
We tested the metabolic stability of the compounds with in vitro liver microsome stability assays (Table 1, right). […] We evaluated the compounds for potential toxicity with assays that test for inhibition of off-target ion channels and receptors. […]

[2] = IP injection: IEM-1460 13.5 mg/kg, IEM-1925 8 mg/kg
[3] = IP injection: IEM-1460 13.5 mg/kg, IEM-1925 8 mg/kg, N = 4

Structure (SMILES)	CAP reduction from baseline [1, 2]	effect on CAP thresholds [1, 3]	CAP amplitude reduction, on average [1, 3]	Mean% inhibition (N = 2) of radioligand binding (NMDA glutamate)	effect on CAP latency ([1]; IP 13.5 mg/kg, all tone levels, N = 4)	mean difference between pre- and post-injection CAP amplitudes ([1]; IP 13.5 mg/kg, exemplary recording, across tone levels)	relative reduction of CAP amplitude ([1]; IP 13.5 mg/kg, exemplary recording, probes of 40–90 dB SPL)	delay from IP injection to start of CAP reduction [1, 2]
NCCCCCNC1(c2ccccc2)CCCCC1 [IEM-1925]	> 50%	minimal effect	~ 20%	<1%				
C[N+](C)(C)CCCCCNCC12CC3CC(CC(C3)C1)C2 [IEM-1460]		not statistically different	~ 20%	<1%	no statistically significant difference	19.1–269 μV	~ 50%	20 to 50 min
